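48-hour exposure; five concentrations; linearly interpolated endpoints. Abbreviation: GI50, concentration required for 50% inhibition of growth. The concentration for full growth arrest is given as TGI.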 Bounds are passed on as bounds.

Test systems include RXF 393 renal; EKVX NSCLC; HOP-62 NSCLC; HT29 colon; HCT-116 colon; SNB-75 CNS; SF-268 CNS; A498 renal; MCF7 breast.
Common to all, as to assay: growth of human tumour cells (NCI), 48 h

With `c1ccc2c(c1)[O][Sn][O]2`, the GI50 in the assay with RXF 393 renal is 23.4 µg/mL; in the assay with EKVX NSCLC, greater than 150 µg/mL; in the assay on HOP-62 NSCLC it was 36.1 µg/mL; in the assay with HT29 colon it was 95.4 µg/mL; in the assay with HCT-116 colon, 19.8 µg/mL; in the assay with SNB-75 CNS it was 100 µg/mL. Also, the GI50 is 25.1 µg/mL with SF-268 CNS and 41.2 µg/mL in the assay with A498 renal. The TGI with RXF 393 renal is 120 µg/mL; with EKVX NSCLC, greater than 150 µg/mL; in the assay on HOP-62 NSCLC it was greater than 150 µg/mL; in the assay on HT29 colon, greater than 150 µg/mL; with HCT-116 colon it was greater than 150 µg/mL; with SNB-75 CNS, greater than 150 µg/mL. Further, the TGI in the assay on SF-268 CNS and in the assay with A498 renal was greater than 150 µg/mL throughout.

For the molecule `CC(C)(C)c1cc(C(OCCl)(C(F)(F)F)C(F)(F)F)c2c(c1)C(C(F)(F)F)(C(F)(F)F)OC21c2ccccc2C(=O)c2ccccc21`, the TGI in the assay with RXF 393 renal, with EKVX NSCLC, in the assay on HT29 colon, with HCT-116 colon and with SNB-75 CNS was greater than 100 µM throughout.

In the case of `CCOC(=O)COc1cccc2occc(=O)c12`, the TGI in the assay on EKVX NSCLC, with HOP-62 NSCLC, in the assay on HT29 colon, in the assay on HCT-116 colon, with SF-268 CNS and with A498 renal was greater than 100 µM throughout.

On to `O=C1c2ccccc2-c2c1c1ccc([N+](=O)[O-])cc1c(=O)n2CCCCl`, for which the GI50 with RXF 393 renal is greater than 100 µM; in the assay with EKVX NSCLC it was greater than 100 µM; in the assay on HOP-62 NSCLC, 43.8 µM; with HT29 colon it was 65 µM; in the assay with HCT-116 colon, 3.62 µM; in the assay with SF-268 CNS it was 23.5 µM. Besides, the GI50 in the assay with MCF7 breast was 1.12 µM. The TGI with RXF 393 renal, with EKVX NSCLC, in the assay with HOP-62 NSCLC, in the assay on HT29 colon, in the assay on HCT-116 colon and in the assay with SF-268 CNS was greater than 100 µM in each case. In the assay with MCF7 breast, this molecule registered a TGI greater than 100 µM.

On to `COc1ccc2c3c(c(C(=O)O)oc13)C(CCC(=O)O)CC2` (stereo not drawn), for which the TGI in the assay on RXF 393 renal, in the assay with EKVX NSCLC, in the assay on HOP-62 NSCLC, in the assay on HT29 colon, with HCT-116 colon and in the assay with SNB-75 CNS was greater than 100 µM in each case. Besides, the TGI in the assay with A498 renal is greater than 100 µM.

As to `CC1(C)CC(O)CC(C)(C)N1.CC1(C)CC(O)CC(C)(C)N1.CC1(C)CC(O)CC(C)(C)N1.CC1(C)CC(O)CC(C)(C)N1.Cl.[Ti]`, the GI50 with RXF 393 renal, in the assay on HOP-62 NSCLC, with HT29 colon, in the assay with HCT-116 colon, in the assay on SNB-75 CNS and with SF-268 CNS was greater than 100 µM throughout. The GI50 in the assay on A498 renal was greater than 100 µM. Further, the TGI in the assay on RXF 393 renal, with HOP-62 NSCLC, in the assay on HT29 colon, in the assay on HCT-116 colon, in the assay on SNB-75 CNS and in the assay on SF-268 CNS was greater than 100 µM in each case. In the assay on A498 renal, this molecule displayed a TGI greater than 100 µM.

With `O=C(Nc1nc2c(s1)CCc1c-2c(Br)n(Cc2ccccc2)c1Br)c1ccccc1`, the GI50 in the assay with RXF 393 renal is 2.01 µM; with HOP-62 NSCLC it was 2.13 µM; in the assay with HT29 colon, 4.71 µM; in the assay on HCT-116 colon, 3.98 µM; with SNB-75 CNS, 1.77 µM; with SF-268 CNS, 6.03 µM. Further, the GI50 in the assay on A498 renal is 4.7 µM; with MCF7 breast it was 5.38 µM. The TGI is 7.69 µM in the assay on RXF 393 renal; 6.72 µM with HOP-62 NSCLC; greater than 100 µM with HT29 colon; greater than 100 µM with HCT-116 colon; 4.74 µM with SNB-75 CNS; greater than 100 µM with SF-268 CNS. The values for the TGI with A498 renal and in the assay with MCF7 breast were 28.9 µM and greater than 100 µM, respectively.

As to `O=S(=O)(Cc1ccccc1)SCc1ccccc1`, the TGI with RXF 393 renal is 65.2 µM; in the assay with EKVX NSCLC, greater than 100 µM; with HOP-62 NSCLC, greater than 100 µM; in the assay on HT29 colon, 54.1 µM; with HCT-116 colon it was 35.4 µM; in the assay with SNB-75 CNS it was greater than 100 µM. Moreover, the TGI with SF-268 CNS was greater than 100 µM; in the assay on A498 renal it was 73.6 µM.

Take `Nc1nc(-c2ccccc2)cc(-c2cc(Cl)ccc2O)n1`: the TGI in the assay on RXF 393 renal is greater than 100 µM; in the assay on EKVX NSCLC, greater than 100 µM; in the assay with HOP-62 NSCLC it was 85.5 µM; with HT29 colon, greater than 100 µM; in the assay on HCT-116 colon, greater than 100 µM; in the assay on SNB-75 CNS, 69 µM. The TGI in the assay on SF-268 CNS and in the assay on A498 renal was greater than 100 µM each time.

For `NC(=O)C(=O)Cc1nc2ccccc2s1`, the TGI in the assay on RXF 393 renal, with EKVX NSCLC, in the assay with HOP-62 NSCLC, with HT29 colon, in the assay on HCT-116 colon and in the assay on SNB-75 CNS was greater than 100 µM each time. Besides, the TGI with SF-268 CNS and in the assay with A498 renal was greater than 100 µM in each case.

Turning to `CC(=O)c1c(O)c2c([nH]c1=O)CCCC2`, the TGI with RXF 393 renal was 67.6 µM; with EKVX NSCLC, greater than 100 µM; in the assay on HOP-62 NSCLC, 46.5 µM; in the assay on HT29 colon, greater than 100 µM; in the assay with SNB-75 CNS, 29 µM; with SF-268 CNS, greater than 100 µM.

`CC1=C(C(=O)CC(=O)C(=O)Nc2ccccc2C)Sc2ccccc2N1`: the TGI in the assay on RXF 393 renal was greater than 100 µM; in the assay on EKVX NSCLC it was greater than 100 µM; in the assay on HOP-62 NSCLC, greater than 100 µM; in the assay on HT29 colon it was greater than 100 µM; in the assay with HCT-116 colon it was greater than 55.8 µM; in the assay with SNB-75 CNS, greater than 100 µM. For the same molecule, the TGI in the assay on SF-268 CNS and in the assay on A498 renal was greater than 100 µM each time.

As to `Cc1csc(CCC(N)C(=O)O)n1` (stereo not drawn), the TGI in the assay with RXF 393 renal, in the assay on EKVX NSCLC, in the assay on HT29 colon, in the assay on HCT-116 colon and in the assay on SNB-75 CNS was greater than 100 µM each time.

For the molecule `Cc1cc(OC(=O)c2c(C)cc(OC(=O)c3c(C)cc(O)cc3O)cc2O)cc(O)c1C(=O)O`, the TGI with RXF 393 renal, with EKVX NSCLC, in the assay with HOP-62 NSCLC, in the assay with HT29 colon, with SNB-75 CNS and in the assay with SF-268 CNS was greater than 100 µM each time. In the assay on A498 renal, this molecule showed a TGI greater than 100 µM.
